This passage reports LC retention time results from the RepoRT retention time repository.

The data set can be described thus: RP, Thermo Scientific Hypersil GOLD, 1.9 µm, 40 °C, 0.4 mL/min; A: water + 0.1% formic acid, pH 3; B: acetonitrile + 0.1% formic acid, pH 3; gradient (min/%B) 0/0 1/0 11/100 13/100 14/0 16/0. The settings on record: stereoisomer not certain.

Consider `O=C(O)C(=O)Cc1ccccc1` [PHENYLPYRUVATE], for which the LC retention time was determined as 5.26 min.

Turning to `C[N+](C)(C)CCOP(=O)(O)O` [PHOSPHORYLCHOLINE], the LC retention time turned out to be 0.64 min. For the compound `O=C([O-])c1ccccn1` [PICOLINATE], the LC retention time came to 0.82 min. For `O=C(O)C1CCCN1` (centres undefined) [PROLINE], the LC retention time turned out to be 0.69 min. The result for `C=Cc1c(C)c2cc3[nH]c(cc4nc(cc5nc(cc1[nH]2)C(C)=C5CCC(=O)O)C(CCC(=O)O)=C4C)c(C)c3C=C` [PROTOPORPHYRIN] reads 11.7 min; that for `Nc1nc2nccnc2c(=O)[nH]1` [PTERIN], 0.82 min. As to `c1ncc2[nH]cnc2n1` [PURINE], the LC retention time worked out at 0.81 min.

Take `NCCCCN` [PUTRESCINE]: the LC retention time was 0.54 min. The result for `Cc1ncc(COP(=O)(O)O)c(C=O)c1O` [PYRIDOXAL-PHOSPHATE] reads 0.83 min; that for `Cc1ncc(CO)c(C=O)c1O` [PYRIDOXAL], 0.72 min; that for `Cc1ncc(CO)c(CN)c1O` [PYRIDOXAMINE], 0.59 min. Regarding `Cc1ncc(CO)c(CO)c1O` [PYRIDOXINE], the LC retention time is 0.82 min. Turning to `O=C(O)c1ccc[nH]1` [PYRROLE-2-CARBOXYLATE], the LC retention time worked out at 4.3 min. In the case of `CCCCCCCCCCCCCCCC(=O)OC(CC(=O)[O-])C[N+](C)(C)C` [Palmitoyl-L-carnitine], the LC retention time turned out to be 9.69 min. `O=P(O)(O)O` [Phosphoric acid_+H+]: the LC retention time stood at 0.64 min. The result for `O=C(O)c1cccc[n+]1[O-]` [Picolinic acid N-oxide] reads 2.04 min; that for `CC(C)CC(NC(=O)C1CCCN1)C(=O)O` (centres undefined) [Pro-Leu], 4.4 min. With `O=C(O)C1(O)CC(O)C(O)C(O)C1` (centres undefined) [QUINATE], the LC retention time amounted to 0.68 min. The result for `O=C(O)c1cccnc1C(=O)O` [QUINOLINATE] reads 1.22 min. As for `c1ccc2ncccc2c1` [QUINOLINE], the LC retention time came to 3.83 min. The result for `O=c1c(OC2OC(CO)C(O)C(O)C2O)c(-c2ccc(O)c(O)c2)oc2cc(O)cc(O)c12` [Quercetin-3-beta-D-glucoside] reads 5.53 min; that for `OCC1OC(OCC2OC(OC3(CO)OC(CO)C(O)C3O)C(O)C(O)C2O)C(O)C(O)C1O` (centres undefined) [RAFFINOSE], 0.68 min; that for `CC(=O)Oc1cccc(O)c1` [RESORCINOL MONOACETATE], 6.1 min. Consider `CC(C=CC1=C(C)CCCC1(C)C)=CC=CC(C)=CC(=O)[O-]` [RETINOATE], for which the LC retention time was 11.5 min. The result for `OCC(O)C(O)C(O)CO` (centres undefined) [RIBITOL] reads 0.64 min; that for `Cc1cc2nc3c(=O)[nH]c(=O)nc-3n(CC(O)C(O)C(O)CO)c2cc1C` (centres undefined) [RIBOFLAVIN], 5.05 min. Take `OCC1OC(O)C(O)C1O` (centres undefined) [RIBOSE]: the LC retention time was determined as 0.66 min. The result for `O=C(C=Cc1ccc(O)c(O)c1)OC(Cc1ccc(O)c(O)c1)C(=O)O` (centres undefined) [ROSMARINATE] reads 6.02 min; that for `Nc1ncnc2c1ncn2C1OC(CSCCC([NH3+])C(=O)[O-])C(O)C1O` (centres undefined) [S-ADENOSYLHOMOCYSTEINE], 0.82 min. As to `C[S+](CCC(N)C(=O)[O-])CC1OC(n2cnc3c(N)ncnc32)C(O)C1O` (centres undefined) [S-ADENOSYLMETHIONINE], the LC retention time was 0.59 min.

For `NC(CSCC(=O)O)C(=O)O` (centres undefined) [S-CARBOXYMETHYLCYSTEINE], the LC retention time came to 0.68 min. On to `CCCCCCSCC(NC(=O)CCC(N)C(=O)O)C(=O)NCC(=O)O` (centres undefined) [S-HEXYL-GLUTATHIONE], for which the LC retention time was 6.32 min. For the compound `NC(=O)c1ccccc1O` [SALICYLAMIDE], the LC retention time was found to be 5.33 min. With `O=C(O)c1ccccc1O` [SALICYLATE], the LC retention time came out at 6.26 min.

As for `CC1NCCc2cc(O)c(O)cc21` (centres undefined) [SALSOLINOL], the LC retention time was 0.82 min. Regarding `CNCC(=O)O` [SARCOSINE], the LC retention time was determined as 0.62 min. In the case of `NCC[Se][Se]CCN` [SELENOCYSTAMINE], the LC retention time was 0.56 min. On to `C[Se]CCC(N)C(=O)O` (centres undefined) [SELENOMETHIONINE], for which the LC retention time turned out to be 0.92 min. With `CC=CC=CC(=O)O` [SORBATE], the LC retention time came out at 6.15 min. The result for `O=C(CO)C(O)C(O)C(O)CO` (centres undefined) [SORBOSE] reads 0.64 min.

Turning to `CCCCCCCCCCCCCCCC(O)C(N)CO` (centres undefined) [SPHINGANINE], the LC retention time was 9.45 min. On to `OCC1OC(OCC2OC(OCC3OC(OC4(CO)OC(CO)C(O)C4O)C(O)C(O)C3O)C(O)C(O)C2O)C(O)C(O)C1O` (centres undefined) [STACHYOSE], for which the LC retention time came out at 0.67 min. For `O=C(O)CCCCCCC(=O)O` [SUBERATE], the LC retention time was 5.58 min. Regarding `OCC1OC(OC2(CO)OC(CO)C(O)C2O)C(O)C(O)C1O` (centres undefined) [SUCROSE], the LC retention time worked out at 0.69 min. Take `O=C(O)CCCCCCCCC(=O)O` [Sebacic acid]: the LC retention time was determined as 6.67 min. Consider `Cn1cnc2c1c(=O)[nH]c(=O)n2C` [THEOBROMINE], for which the LC retention time turned out to be 4.02 min. The result for `Cn1c(=O)c2[nH]cnc2n(C)c1=O` [THEOPHYLLINE] reads 4.42 min; that for `Cc1ncc(C[n+]2csc(CCOP(=O)(O)O)c2C)c(N)n1` [THIAMINE MONOPHOSPHATE], 0.63 min; that for `Cc1ncc(C[n+]2csc(CCOP(=O)([O-])OP(=O)(O)O)c2C)c(N)n1` [THIAMINE PYROPHOSPHATE], 0.65 min.

Regarding `Cc1ncc(C[n+]2csc(CCO)c2C)c(N)n1` [THIAMINE], the LC retention time stood at 0.61 min. Take `CSc1ncnc2nc[nH]c12` [THIOPURINE S-METHYLETHER]: the LC retention time was 4.8 min. In the case of `Cc1cn(C2CC(O)C(COP(=O)(O)O)O2)c(=O)[nH]c1=O` (centres undefined) [THYMIDINE-MONOPHOSPHATE], the LC retention time was found to be 0.82 min. On to `Cc1cn(C2CC(O)C(CO)O2)c(=O)[nH]c1=O` (centres undefined) [THYMIDINE], for which the LC retention time came to 3.68 min.

For the compound `Cc1c[nH]c(=O)[nH]c1=O` [THYMINE], the LC retention time was 1.47 min. `NC(=O)C1CCCN1C(=O)C(Cc1cnc[nH]1)NC(=O)C1CCC(=O)N1` (centres undefined) [THYROTROPIN RELEASING HORMONE]: the LC retention time amounted to 0.84 min. Take `NC(Cc1cc(I)c(Oc2cc(I)c(O)c(I)c2)c(I)c1)C(=O)O` (centres undefined) [THYROXINE]: the LC retention time stood at 7.42 min.

With `O=C(O)/C=C/c1ccccc1` [TRANS-CINNAMATE], the LC retention time worked out at 6.96 min. With `OCC1OC(OC2OC(CO)C(O)C(O)C2O)C(O)C(O)C1O` (centres undefined) [TREHALOSE], the LC retention time was determined as 0.65 min.

With `CCCCCCCCCCCCCCCCCCCCCCC(=O)[O-]` [TRICOSANOATE], the LC retention time is 14.6 min.

In the case of `C[n+]1cccc(C(=O)[O-])c1` [TRIGONELLINE], the LC retention time came out at 0.69 min. For `NCCc1c[nH]c2ccccc12` [TRYPTAMINE], the LC retention time is 4.7 min.

Regarding `NCCc1ccc(O)cc1` [TYRAMINE], the LC retention time came out at 1.24 min. The result for `CCCCCCCC=CC(=O)OC(CC(=O)[O-])C[N+](C)(C)C` (stereo not drawn) [Trans -2-decenoyl-l-carnitine] reads 7.45 min; that for `O=C/C=C/c1ccccc1` [Trans-Cinnamaldehyde], 7.27 min.
